Measured values: patent US11993604B2, “Substituted pyrazolo[4,3-H]quinazolines as protein kinase inhibitors” (SHENGKE PHARMACEUTICALS (JIANGSU) LTD., priority 2017, dated 2024)

How the values were obtained:
[1] = molecular target: T1, recombinant CDK4/Cyclin D1 (Homo sapiens, UniProt P11802); assay: Biochemical kinase inhibition test, CDK4/Cyclin D1 (32P-ATP, retinoblastoma protein substrate); conditions: three-fold serial dilution from 10 μM; 10 μM ATP; read-out: CDK4/D1 (nM), enzyme inhibitory activity IC50
T1 construct: purchased Life Technologies PV4204

[2] = molecular target: CDK6/cyclin D1 (Homo sapiens, UniProt Q00534); assay: Biochemical kinase inhibition test, CDK6/cyclin D1 (similar method); conditions: for IC50: three-fold serial dilution from 10 μM, 10 μM ATP, read-out: CDK6/D1 (nM), enzyme inhibitory activity IC50; for selectivity for CDK6/cyclin D1 relative to CDK4/cyclin D1 (enzyme inhibitory activity): CDK6/cyclin D1 versus CDK4/cyclin D1
Method: Potency determination of biochemical kinase inhibition test. Kinase activity test and IC50 determination. Firstly, 10 ng of recombinant CDK4/Cyclin D1 (Life Technologies PV4204) was diluted in kinase buffer (20 mM Tris pH 7.5, 10 mM MgCl2, 0.01% NP-40, 2 mM DTT), and was incubated with inhibitors at the indicated concentration at room temperature for 30 minutes. The kinase reaction was initiated by adding […] (1.5 μM) of recombinant retinoblastoma protein, 5 μM ATP and 10μ Ci γ-32P-ATP. The reaction was incubated at 30° C. for 20 minutes, and was terminated by adding 2× Laemmli sample buffer, heated at 95° C. for three minutes, and the resulting solution was dissolved with 12% acrylamide SDS-PAGE and autoradiographed. A densitometer (Bio-Rad) was used to quantify the corresponding phosphorylated substrate protein bands. The resulting density values were plotted as a function of the log drug concentration using Prism 4 Graphpad software. IC50 values were determined by plotting a non-linear regression curve with a variable slope.
The inhibitory activity of the compounds disclosed herein against CDK6/cyclin D1 was tested by a similar method.
The compounds were tested in a three-fold serial dilution from the starting concentration of 10 μM, over 10-fold of IC50. The control compound, staurosporine, was tested in a four-fold serial dilution from the starting concentration of 20 μM, over 10-fold of IC50. These reactions took place in the presence of 10 μM ATP.

Sequence of CDK6/cyclin D1 (Q00534 whole entry, species assumed): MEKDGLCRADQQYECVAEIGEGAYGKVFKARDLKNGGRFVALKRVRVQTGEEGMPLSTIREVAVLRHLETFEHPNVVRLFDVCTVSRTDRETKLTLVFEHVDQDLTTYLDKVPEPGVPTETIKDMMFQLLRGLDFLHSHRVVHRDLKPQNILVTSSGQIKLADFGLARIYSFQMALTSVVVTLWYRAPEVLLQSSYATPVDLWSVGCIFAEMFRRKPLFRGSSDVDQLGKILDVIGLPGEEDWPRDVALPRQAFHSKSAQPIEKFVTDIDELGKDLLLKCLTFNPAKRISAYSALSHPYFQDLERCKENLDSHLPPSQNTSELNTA
Sequence of CDK6/cyclin D1 (P24385 whole entry partner, species assumed): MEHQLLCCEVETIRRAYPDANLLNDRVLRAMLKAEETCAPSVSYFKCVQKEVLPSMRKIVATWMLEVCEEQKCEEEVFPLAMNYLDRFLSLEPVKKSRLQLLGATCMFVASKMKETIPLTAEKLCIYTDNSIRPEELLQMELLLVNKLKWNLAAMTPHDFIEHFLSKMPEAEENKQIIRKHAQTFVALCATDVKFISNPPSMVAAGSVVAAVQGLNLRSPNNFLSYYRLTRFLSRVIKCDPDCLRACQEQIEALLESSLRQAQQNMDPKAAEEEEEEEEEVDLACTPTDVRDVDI
T1 sequence (P11802 whole entry): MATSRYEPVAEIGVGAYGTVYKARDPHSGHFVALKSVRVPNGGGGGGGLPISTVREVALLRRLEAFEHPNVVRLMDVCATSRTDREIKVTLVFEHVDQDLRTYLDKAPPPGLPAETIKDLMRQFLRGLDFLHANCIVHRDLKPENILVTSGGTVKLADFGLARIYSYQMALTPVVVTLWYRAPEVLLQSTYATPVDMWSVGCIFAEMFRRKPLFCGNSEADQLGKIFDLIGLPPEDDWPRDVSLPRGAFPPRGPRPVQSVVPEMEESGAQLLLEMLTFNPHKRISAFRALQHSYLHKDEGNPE
T1 sequence (P24385 whole entry partner): as the sequence (P24385 whole entry partner, species assumed) above

| SMILES | IC50 [1] | IC50 [2] | selectivity for CDK6/cyclin D1 relative to CDK4/cyclin D1 (enzyme inhibitory activity) [2] |
| --- | --- | --- | --- |
| CCN1CCN(c2cnc(Nc3ncc4ccc5cnn(C(C)C)c5c4n3)cc2C)CC1 [Compound I-8] | 5 to 10 nM | 10 to 20 nM |  |
| CC(C)n1ncc2ccc3cnc(Nc4ccc(N5C[C@@H](C)N[C@@H](C)C5)cn4)nc3c21 [Compound I-13] | 5 to 10 nM | 5 to 10 nM |  |
| Cc1cc(Nc2ncc3ccc4cnn(C5CCCC5)c4c3n2)ncc1N1CCNCC1 [Compound I-36] | 10 to 20 nM | 10 to 20 nM |  |
| Cc1cc(Nc2ncc3ccc4cnn(C5CC5)c4c3n2)ncc1N1CCN(C)CC1 [Compound I-55] | 20 to 50 nM | 10 to 20 nM | about 2 times |
| CCN1CCN(c2ccc(Nc3ncc4cc(Br)c5cnn(C(C)C)c5c4n3)nc2)CC1 [Compound I-64] | 10 to 20 nM | 10 to 20 nM |  |
| CCn1ncc2ccc3cnc(Nc4cc(C)c(N5CCN(C)CC5)cn4)nc3c21 [Compound I-51] | 20 to 50 nM | 10 to 20 nM | about 2 times |
| CC(C)n1ncc2ccc3cnc(Nc4ccc(C(=O)N5CCC(N6CCN(C)CC6)CC5)cn4)nc3c21 [Compound I-31] | 50 to 100 nM | 50 to 100 nM |  |
| CCN1CCN(c2cnc(Nc3ncc4ccc5cnn(CC)c5c4n3)cc2C)CC1 [Compound I-49] | 20 to 50 nM | 10 to 20 nM | about 2 times |
| CC1CN(c2ccc(Nc3ncc4ccc5cnn(C(C)C)c5c4n3)nc2)CCO1 (stereo not shown) [Compound I-16] | 5 to 10 nM | 5 to 10 nM |  |
| CC(C)n1ncc2ccc3cnc(Nc4ccc(N5CCCNCC5)cn4)nc3c21 [Compound I-22] | 10 to 20 nM | 10 to 20 nM |  |
| CC(C)n1ncc2ccc3cnc(Nc4ccc(N5CCCCC5)cn4)nc3c21 [Compound I-23] | 50 to 100 nM | 50 to 100 nM |  |
| CC(C)n1ncc2c(C#N)cc3cnc(Nc4ccc(N5CCOCC5)cn4)nc3c21 [Compound I-74] | 10 to 20 nM | 1 to 5 nM | about 3 times |
| CCn1ncc2ccc3cnc(Nc4ccc(N5CCNCC5)cn4)nc3c21.Cl [Compound I-45] | 10 to 20 nM | 5 to 10 nM | about 3 times |
| CCn1ncc2ccc3cnc(Nc4cc(F)c(N5CCNCC5)cn4)nc3c21.Cl [Compound I-46] | 20 to 50 nM | 10 to 20 nM | about 2 times |
| COc1cc(OC)cc(-c2cc3cnc(Nc4ccc(N5CCOCC5)cn4)nc3c3c2cnn3C(C)C)c1 [Compound I-82] | 5 to 10 nM | 1 to 5 nM | about 3 times |
| CC(C)n1ncc2c(Br)cc3cnc(Nc4ccc(N5CCNCC5)cn4)nc3c21 [Compound I-61] | 10 to 20 nM | 10 to 20 nM |  |
| CC(=O)c1cc2cnc(Nc3cc(F)c(N4CCNCC4)cn3)nc2c2c1cnn2C(C)C.Cl [Compound I-76] | 10 to 20 nM | 5 to 10 nM | about 2 times |
| CC(C)n1ncc2ccc3cnc(Nc4ccc(N5CC6(CCNCC6)C5)cn4)nc3c21 [Compound I-26] | 1 to 5 nM | 1 to 5 nM |  |
| Cc1nc(Nc2ncc3ccc4cnn(C(C)C)c4c3n2)ccc1N1CCS(=O)(=O)CC1 [Compound I-30] | 10 to 20 nM | 10 to 20 nM |  |
| Cc1cc2cnc(Nc3cc(F)c(N4CCNCC4)cn3)nc2c2c1cnn2C(C)C.Cl [Compound I-67] | 20 to 50 nM | 10 to 20 nM | about 2 times |
| c1cc(Nc2ncc3ccc4cnn(C5CC5)c4c3n2)ncc1N1CCOCC1 [Compound I-58] | 10 to 20 nM | 5 to 10 nM | about 3 times |
| Cc1cc(Nc2ncc3ccc4cnn(C(C)C)c4c3n2)ncc1N1CCN(C)CC1 [Compound I-5] | 5 to 10 nM | 10 to 20 nM |  |
| CC(C)n1ncc2c(Br)cc3cnc(Nc4ccc(N5CCOCC5)cn4)nc3c21 [Compound I-65] | 10 to 20 nM | 10 to 20 nM |  |
| Cl.c1cc(Nc2ncc3ccc4cnn(C5CC5)c4c3n2)ncc1N1CCNCC1 [Compound I-53] | 10 to 20 nM | 5 to 10 nM | about 2 times |
| CC(C)n1ncc2ccc3cnc(Nc4ccc(N5CCC6(CCNCC6)C5)cn4)nc3c21 [Compound I-27] | 20 to 50 nM | 20 to 50 nM |  |
| CC(C)n1ncc2ccc3cnc(Nc4ccc(N5CCNCC5)c(F)n4)nc3c21 [Compound I-11] | 1 to 5 nM | 5 to 10 nM |  |
| CCN1CCN(c2ccc(Nc3ncc4ccc5cnn(C6CCCC6)c5c4n3)nc2)CC1 [Compound I-39] | < 1 nM | 1 to 5 nM |  |
| CC(C)n1ncc2ccc3cnc(N4CCC[C@@H]4c4cccc(F)c4)nc3c21 [Compound I-33] | 50 to 100 nM | 50 to 100 nM |  |
